Data: patent US20130210786A1, “TREATMENT OF L-DOPA, DOPAMINE AGONIST AND/OR DOPAMINE ENHANCER INDUCED DISORDERS” (priority 2010, published 2013)

Tests used:
MPTP-lesioned macaques [1] = assay: On-time (time without bradykinesia) in MPTP-lesioned macaques after L-DOPA challenge; type: in vivo, Macaca fascicularis; settings: for Minutes spent in on time (mean ± s.e. mean): 6 h observation; for Minutes spent in on time (mean ± s.e. mean) / Percent on-time normalised to 0 mg/kg L-DOPA (mean ± s.e. mean): smilagenin 20 mg/kg/day p.o. 18 weeks, then 10 week washout
Procedure: Analysis was performed using a two-way ANOVA with group and L-DOPA dose as factors.

MPTP-lesioned macaques [2] = assay: L-DOPA induced dyskinesia (LID) in MPTP-lesioned macaques, monkey dyskinesia rating scale; type: in vivo, Macaca fascicularis; settings: for % reduction in LID compared to corresponding vehicle group / Number of LID events in each stated time period (hours) post challenge 0-1 / Number of LID events in each stated time period (hours) post challenge 1-2 / Number of LID events in each stated time period (hours) post challenge 2-3 / Number of LID events in each stated time period (hours) post challenge 3-4 / Number of LID events in each stated time period (hours) post challenge 4-5 / Number of LID events in each stated time period (hours) post challenge 5-6 / Number of LID events post challenge Total: smilagenin 20 mg/kg/day p.o. 18 weeks, then 10 week washout; for Number of LID events in each stated time period (hours) post challenge 0-1: 0-1 h; for Number of LID events in each stated time period (hours) post challenge 1-2: 1-2 h; for Number of LID events in each stated time period (hours) post challenge 2-3: 2-3 h; for Number of LID events in each stated time period (hours) post challenge 3-4: 3-4 h; for Number of LID events in each stated time period (hours) post challenge 4-5: 4-5 h; for Number of LID events in each stated time period (hours) post challenge 5-6: 5-6 h; for Number of LID events post challenge Total: total 0-6 h
Procedure: Ten female cynomolgus monkeys (macaques) (Macaca fascicularis, 3.0-4.5 kg, 4-6 years old) were acclimatised to the experimental setting and procedures for 3 months and baseline behaviour was assessed in all animals. The macaques received MPTP (0.2 mg/kg/day, s.c.) until moderate-marked, stable, parkinsonian symptoms developed.
Following stabilisation of parkinsonian disability, the macaques were administered L-DOPA (Madopar, 20 mg/kg b.i.d., p.o.) for 19 weeks before being administered L-DOPA+vehicle (hydroxypropylmethylcellulose, HPMC, 0.5% w/v containing Tween 80, 0.2% v/v, group 1, n=5) or L-DOPA+smilagenin (20 mg/kg/day, p.o., group 2, n=5) for a further 18 weeks. Smilagenin was then washed out for 10 weeks and all the macaques received only L-DOPA twice daily over this 10 week period.
Following the 10 week washout, the macaques were challenged with L-DOPA (6, 12, 20, 30 or 40 mg/kg, p.o.) or vehicle and the level of dyskinesia over the subsequent 6 h period was assessed by a neurologist blinded to treatment using a monkey dyskinesia rating scale. […] Each macaque received a challenge once every 3 days and received every challenge (vehicle and L-DOPA, 6, 12, 20, 30 or 40 mg/kg) in a randomised order over the course of the experiment. On the days between challenges, the macaques received L-DOPA (20 mg/kg, b.i.d., p.o.) as normal.
The MPTP-lesioned and L-DOPA treated macaques used in this experiment provide an accepted model for L-DOPA-induced dyskinesia.

[3] = Total across all L-DOPA challenge doses (0-40 mg/kg)

In the case of C[C@@H]1CC[C@@]2(OC1)O[C@H]1C[C@H]3[C@@H]4CC[C@@H]5C[C@@H](O)CC[C@]5(C)[C@H]4CC[C@]3(C)[C@H]1[C@@H]2C [Smilagenin, smilagenin], the “Minutes spent in on time (mean ± s.e. mean)” value (“Minutes spent in on time” for short) (MPTP-lesioned macaques [1]; L-DOPA dose 0 mg/kg) is reported as 114 ± 43 min, the “Percent on-time normalised to 0 mg/kg L-DOPA (mean ± s.e. mean)” value (shortened to “Percent on-time normalised”) (MPTP-lesioned macaques [1]; L-DOPA dose 0 mg/kg) is reported as 100% and the “Minutes spent in on time” value (MPTP-lesioned macaques [1]; L-DOPA dose 6 mg/kg) is reported as 134 ± 43 min. For the same compound, the “Percent on-time normalised” value (MPTP-lesioned macaques [1]; L-DOPA dose 6 mg/kg) was 118 ± 32%, the “Minutes spent in on time” value (MPTP-lesioned macaques [1]; L-DOPA dose 12 mg/kg) was 126 ± 35 min and the “Percent on-time normalised” value (MPTP-lesioned macaques [1]; L-DOPA dose 12 mg/kg) was 111 ± 28%. For the same compound, the “Minutes spent in on time” value (MPTP-lesioned macaques [1]; L-DOPA dose 20 mg/kg) was 178 ± 29 min, the “Percent on-time normalised” value (MPTP-lesioned macaques [1]; L-DOPA dose 20 mg/kg) was 156 ± 16% and the “Minutes spent in on time” value (MPTP-lesioned macaques [1]; L-DOPA dose 30 mg/kg) was 224 ± 13 min. The “Percent on-time normalised” value (MPTP-lesioned macaques [1]; L-DOPA dose 30 mg/kg) was 196 ± 6%, the “Minutes spent in on time” value (MPTP-lesioned macaques [1]; L-DOPA dose 40 mg/kg) was 230 ± 24 min and the “Percent on-time normalised” value (MPTP-lesioned macaques [1]; L-DOPA dose 40 mg/kg) was 202 ± 10%. For the same compound, the “Total on-time, smilagenin group versus vehicle group” value (MPTP-lesioned macaques [1]; two-way ANOVA with group and L-DOPA dose as factors, p>0.05) was “not significantly different”, the “% reduction in LID compared to corresponding vehicle group” value (“% reduction in LID” below) (MPTP-lesioned macaques [2]; Across all doses of L-DOPA) was 53% and the “Number of LID events in each stated time period (hours) post challenge 0-1” value (from here on “Number … (hours) post challenge 0-1”) (MPTP-lesioned macaques [2]; L-DOPA challenge 0 mg/kg) was 0. The “Number of LID events in each stated time period (hours) post challenge 1-2” value (from here on “Number … (hours) post challenge 1-2”) (MPTP-lesioned macaques [2]; L-DOPA challenge 0 mg/kg) was 0, the “Number of LID events in each stated time period (hours) post challenge 2-3” value (from here on “Number … (hours) post challenge 2-3”) (MPTP-lesioned macaques [2]; L-DOPA challenge 0 mg/kg) was 0 and the “Number of LID events in each stated time period (hours) post challenge 3-4” value (from here on “Number … (hours) post challenge 3-4”) (MPTP-lesioned macaques [2]; L-DOPA challenge 0 mg/kg) was 0. The “Number of LID events in each stated time period (hours) post challenge 4-5” value (from here on “Number … (hours) post challenge 4-5”) (MPTP-lesioned macaques [2]; L-DOPA challenge 0 mg/kg) was 0, the “Number of LID events in each stated time period (hours) post challenge 5-6” value (from here on “Number … (hours) post challenge 5-6”) (MPTP-lesioned macaques [2]; L-DOPA challenge 0 mg/kg) was 0 and the “% reduction in LID” value (MPTP-lesioned macaques [2]; L-DOPA challenge 0 mg/kg) was 0%. The “Number of LID events post challenge Total” value (MPTP-lesioned macaques [2]; L-DOPA challenge 0 mg/kg) was 0, the “Number … (hours) post challenge 0-1” value (MPTP-lesioned macaques [2]; L-DOPA challenge 6 mg/kg p.o.) was 0 and the “Number … (hours) post challenge 1-2” value (MPTP-lesioned macaques [2]; L-DOPA challenge 6 mg/kg p.o.) was 0. The “Number … (hours) post challenge 2-3” value (MPTP-lesioned macaques [2]; L-DOPA challenge 6 mg/kg p.o.) was 0, the “Number … (hours) post challenge 3-4” value (MPTP-lesioned macaques [2]; L-DOPA challenge 6 mg/kg p.o.) was 0 and the “Number … (hours) post challenge 4-5” value (MPTP-lesioned macaques [2]; L-DOPA challenge 6 mg/kg p.o.) was 0. The “Number … (hours) post challenge 5-6” value (MPTP-lesioned macaques [2]; L-DOPA challenge 6 mg/kg p.o.) was 0, the “% reduction in LID” value (MPTP-lesioned macaques [2]; L-DOPA challenge 6 mg/kg p.o.) was 0% and the “Number of LID events post challenge Total” value (MPTP-lesioned macaques [2]; L-DOPA challenge 6 mg/kg p.o.) was 0. For the same compound, the “Number … (hours) post challenge 0-1” value (MPTP-lesioned macaques [2]; L-DOPA challenge 12 mg/kg p.o.) was 0, the “Number … (hours) post challenge 1-2” value (MPTP-lesioned macaques [2]; L-DOPA challenge 12 mg/kg p.o.) was 0 and the “Number … (hours) post challenge 2-3” value (MPTP-lesioned macaques [2]; L-DOPA challenge 12 mg/kg p.o.) was 0. For the same compound, the “Number … (hours) post challenge 3-4” value (MPTP-lesioned macaques [2]; L-DOPA challenge 12 mg/kg p.o.) was 0, the “Number … (hours) post challenge 4-5” value (MPTP-lesioned macaques [2]; L-DOPA challenge 12 mg/kg p.o.) was 0 and the “Number … (hours) post challenge 5-6” value (MPTP-lesioned macaques [2]; L-DOPA challenge 12 mg/kg p.o.) was 0. For the same compound, the “% reduction in LID” value (MPTP-lesioned macaques [2]; L-DOPA challenge 12 mg/kg p.o.) was 100%, the “Number of LID events post challenge Total” value (MPTP-lesioned macaques [2]; L-DOPA challenge 12 mg/kg p.o.) was 0 and the “Number … (hours) post challenge 0-1” value (MPTP-lesioned macaques [2]; L-DOPA challenge 20 mg/kg p.o.) was 8. For the same compound, the “Number … (hours) post challenge 1-2” value (MPTP-lesioned macaques [2]; L-DOPA challenge 20 mg/kg p.o.) was 29, the “Number … (hours) post challenge 2-3” value (MPTP-lesioned macaques [2]; L-DOPA challenge 20 mg/kg p.o.) was 6 and the “Number … (hours) post challenge 3-4” value (MPTP-lesioned macaques [2]; L-DOPA challenge 20 mg/kg p.o.) was 0. For the same compound, the “Number … (hours) post challenge 4-5” value (MPTP-lesioned macaques [2]; L-DOPA challenge 20 mg/kg p.o.) was 0, the “Number … (hours) post challenge 5-6” value (MPTP-lesioned macaques [2]; L-DOPA challenge 20 mg/kg p.o.) was 0 and the “% reduction in LID” value (MPTP-lesioned macaques [2]; L-DOPA challenge 20 mg/kg p.o.) was 52%. The “Number of LID events post challenge Total” value (MPTP-lesioned macaques [2]; L-DOPA challenge 20 mg/kg p.o.) was 43, the “Number … (hours) post challenge 0-1” value (MPTP-lesioned macaques [2]; L-DOPA challenge 30 mg/kg p.o.) was 3 and the “Number … (hours) post challenge 1-2” value (MPTP-lesioned macaques [2]; L-DOPA challenge 30 mg/kg p.o.) was 29. The “Number … (hours) post challenge 2-3” value (MPTP-lesioned macaques [2]; L-DOPA challenge 30 mg/kg p.o.) was 11, the “Number … (hours) post challenge 3-4” value (MPTP-lesioned macaques [2]; L-DOPA challenge 30 mg/kg p.o.) was 0 and the “Number … (hours) post challenge 4-5” value (MPTP-lesioned macaques [2]; L-DOPA challenge 30 mg/kg p.o.) was 0. The “Number … (hours) post challenge 5-6” value (MPTP-lesioned macaques [2]; L-DOPA challenge 30 mg/kg p.o.) was 0, the “% reduction in LID” value (MPTP-lesioned macaques [2]; L-DOPA challenge 30 mg/kg p.o.) was 76% and the “Number of LID events post challenge Total” value (MPTP-lesioned macaques [2]; L-DOPA challenge 30 mg/kg p.o.) was 43. For the same compound, the “Number … (hours) post challenge 0-1” value (MPTP-lesioned macaques [2]; L-DOPA challenge 40 mg/kg p.o.) was 8, the “Number … (hours) post challenge 1-2” value (MPTP-lesioned macaques [2]; L-DOPA challenge 40 mg/kg p.o.) was 56 and the “Number … (hours) post challenge 2-3” value (MPTP-lesioned macaques [2]; L-DOPA challenge 40 mg/kg p.o.) was 48. For the same compound, the “Number … (hours) post challenge 3-4” value (MPTP-lesioned macaques [2]; L-DOPA challenge 40 mg/kg p.o.) was 14, the “Number … (hours) post challenge 4-5” value (MPTP-lesioned macaques [2]; L-DOPA challenge 40 mg/kg p.o.) was 0 and the “Number … (hours) post challenge 5-6” value (MPTP-lesioned macaques [2]; L-DOPA challenge 40 mg/kg p.o.) was 0. For the same compound, the “% reduction in LID” value (MPTP-lesioned macaques [2]; L-DOPA challenge 40 mg/kg p.o.) was 27%, the “Number of LID events post challenge Total” value (MPTP-lesioned macaques [2]; L-DOPA challenge 40 mg/kg p.o.) was 126 and the “Number … (hours) post challenge 0-1” value (MPTP-lesioned macaques [2]; [3]) was 19. The “Number … (hours) post challenge 1-2” value (MPTP-lesioned macaques [2]; [3]) was 114, the “Number … (hours) post challenge 2-3” value (MPTP-lesioned macaques [2]; [3]) was 65 and the “Number … (hours) post challenge 3-4” value (MPTP-lesioned macaques [2]; [3]) was 14. The “Number … (hours) post challenge 4-5” value (MPTP-lesioned macaques [2]; [3]) was 0, the “Number … (hours) post challenge 5-6” value (MPTP-lesioned macaques [2]; [3]) was 0 and the “Number of LID events post challenge Total” value (MPTP-lesioned macaques [2]; [3]) was 212. The “Dyskinesia following challenge with L-DOPA” value (MPTP-lesioned macaques [2]; group 2 (L-DOPA+smilagenin), challenge with L-DOPA 6 or 12 mg/kg, 6 h) was “no dyskinesia was observed” and the “Dyskinesia following challenge with L-DOPA, compared to group 1 (vehicle)” value (MPTP-lesioned macaques [2]; group 2 (L-DOPA+smilagenin), challenge with L-DOPA at 20, 30 or 40 mg/kg) was “less dyskinesia compared to group 1”.
